Where two headings read alike, the source gives them in different places.

The target of data set [1] is T1, human P450 3A4 (Homo sapiens, UniProt P08684).
The target in data set [2] is T1, human P450 3A4. In words: Effect on P450 3A4-catalyzed midazolam 1’-hydroxylation.
Data set [3] deals with T2, human P450 2C9 (Homo sapiens, UniProt P11712).
In data set [4] the target is T2, human P450 2C9. Briefly: Inhibition of P450 2C9-dependent flurbiprofen 4’-hydroxylation.
In data set [5] the target is T1, human P450 3A4. This is another data set of the same source.
In a further data set the target is T3, human P450 1A1 (Homo sapiens, UniProt P04798).
T3 sequence (P04798 1-512): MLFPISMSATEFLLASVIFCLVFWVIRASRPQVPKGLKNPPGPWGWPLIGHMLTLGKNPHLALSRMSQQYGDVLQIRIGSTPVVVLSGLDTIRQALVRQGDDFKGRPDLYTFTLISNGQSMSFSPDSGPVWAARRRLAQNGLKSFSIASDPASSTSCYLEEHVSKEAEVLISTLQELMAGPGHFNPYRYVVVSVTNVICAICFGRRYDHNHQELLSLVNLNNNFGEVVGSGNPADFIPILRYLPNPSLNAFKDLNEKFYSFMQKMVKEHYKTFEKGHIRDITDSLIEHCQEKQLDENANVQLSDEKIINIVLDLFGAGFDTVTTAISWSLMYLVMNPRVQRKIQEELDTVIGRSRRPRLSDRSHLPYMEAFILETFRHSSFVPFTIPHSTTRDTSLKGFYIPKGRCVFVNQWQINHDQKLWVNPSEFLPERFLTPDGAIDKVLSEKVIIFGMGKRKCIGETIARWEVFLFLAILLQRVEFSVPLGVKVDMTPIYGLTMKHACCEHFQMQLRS
Briefly: Inhibition of P450 1A1-dependent EROD activity. The class given is biochemical.

Data set [6] concerns the target T1, human P450 3A4. In words: Spectral binding titration with purified P450 3A4. The settings on record: decreases in α and β bands monitored; up to 100 µM.
The target of another data set is CYP3A4 (P450 3A4) (Homo sapiens, UniProt P08684). In words: Inhibition of P450 3A4-dependent midazolam 4-hydroxylation. The settings on record: human, pH 7.4, probe midazolam (0.1 mM), 4-hydroxylation.
The target in the next data set is T4, human P450 1B1 (Homo sapiens, UniProt Q16678).
T4 sequence (Q16678 1-543): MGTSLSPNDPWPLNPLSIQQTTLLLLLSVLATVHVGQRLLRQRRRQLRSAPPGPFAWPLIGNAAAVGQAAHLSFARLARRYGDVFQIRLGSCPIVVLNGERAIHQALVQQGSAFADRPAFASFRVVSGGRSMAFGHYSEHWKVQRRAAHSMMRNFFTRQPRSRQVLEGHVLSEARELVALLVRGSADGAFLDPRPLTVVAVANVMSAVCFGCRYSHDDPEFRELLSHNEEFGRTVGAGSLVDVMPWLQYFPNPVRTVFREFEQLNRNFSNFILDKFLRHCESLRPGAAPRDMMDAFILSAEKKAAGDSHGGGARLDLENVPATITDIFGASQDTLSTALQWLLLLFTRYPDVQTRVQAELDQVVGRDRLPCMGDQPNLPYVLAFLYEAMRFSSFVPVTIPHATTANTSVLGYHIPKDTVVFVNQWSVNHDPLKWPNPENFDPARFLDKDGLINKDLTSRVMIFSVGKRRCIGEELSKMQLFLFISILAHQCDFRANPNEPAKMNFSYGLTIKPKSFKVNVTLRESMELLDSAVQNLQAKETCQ
Briefly: Inhibition of P450 1B1-dependent EROD activity. Particulars: read-out: inhibition of substrate oxidation by P450s (IC50), P450 1B1; 7-ethoxyresorufin O-deethylation, 2.5 µM substrate, bacterial membranes; means ± SD. The data set is classed as biochemical.

The next data set concerns the target T5, human P450 1A2 (Homo sapiens, UniProt P05177).
T5 sequence (P05177 1-516): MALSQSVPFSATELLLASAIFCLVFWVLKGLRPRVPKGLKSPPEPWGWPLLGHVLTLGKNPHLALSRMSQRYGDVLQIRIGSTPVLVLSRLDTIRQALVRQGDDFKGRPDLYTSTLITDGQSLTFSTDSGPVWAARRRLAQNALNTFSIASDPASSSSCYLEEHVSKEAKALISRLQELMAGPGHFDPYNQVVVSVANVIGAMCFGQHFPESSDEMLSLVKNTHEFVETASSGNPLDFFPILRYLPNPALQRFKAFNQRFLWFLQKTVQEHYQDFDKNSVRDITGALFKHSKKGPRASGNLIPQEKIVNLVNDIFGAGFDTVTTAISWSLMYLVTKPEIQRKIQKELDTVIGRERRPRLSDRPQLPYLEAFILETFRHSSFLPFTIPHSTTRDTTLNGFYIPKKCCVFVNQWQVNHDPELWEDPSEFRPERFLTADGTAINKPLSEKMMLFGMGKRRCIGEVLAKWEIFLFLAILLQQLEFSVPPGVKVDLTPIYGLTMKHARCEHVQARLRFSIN

Data set [7] addresses T1, human P450 3A4. In words: Inhibition of P450 3A4-dependent midazolam 4-hydroxylation.

T1 sequence (P08684 whole entry): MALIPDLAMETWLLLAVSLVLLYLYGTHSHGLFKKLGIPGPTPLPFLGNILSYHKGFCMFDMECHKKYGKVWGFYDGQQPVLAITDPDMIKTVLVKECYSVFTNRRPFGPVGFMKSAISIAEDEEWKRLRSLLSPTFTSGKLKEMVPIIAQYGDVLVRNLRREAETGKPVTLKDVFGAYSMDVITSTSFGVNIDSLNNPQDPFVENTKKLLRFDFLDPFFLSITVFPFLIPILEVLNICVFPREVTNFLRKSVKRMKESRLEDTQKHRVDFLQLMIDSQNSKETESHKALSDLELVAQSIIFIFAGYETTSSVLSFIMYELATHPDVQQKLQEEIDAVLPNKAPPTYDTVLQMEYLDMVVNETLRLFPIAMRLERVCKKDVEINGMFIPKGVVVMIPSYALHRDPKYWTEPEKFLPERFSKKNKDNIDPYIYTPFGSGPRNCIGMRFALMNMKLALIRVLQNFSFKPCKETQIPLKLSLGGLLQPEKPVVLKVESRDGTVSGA
T2 sequence (P11712 whole entry): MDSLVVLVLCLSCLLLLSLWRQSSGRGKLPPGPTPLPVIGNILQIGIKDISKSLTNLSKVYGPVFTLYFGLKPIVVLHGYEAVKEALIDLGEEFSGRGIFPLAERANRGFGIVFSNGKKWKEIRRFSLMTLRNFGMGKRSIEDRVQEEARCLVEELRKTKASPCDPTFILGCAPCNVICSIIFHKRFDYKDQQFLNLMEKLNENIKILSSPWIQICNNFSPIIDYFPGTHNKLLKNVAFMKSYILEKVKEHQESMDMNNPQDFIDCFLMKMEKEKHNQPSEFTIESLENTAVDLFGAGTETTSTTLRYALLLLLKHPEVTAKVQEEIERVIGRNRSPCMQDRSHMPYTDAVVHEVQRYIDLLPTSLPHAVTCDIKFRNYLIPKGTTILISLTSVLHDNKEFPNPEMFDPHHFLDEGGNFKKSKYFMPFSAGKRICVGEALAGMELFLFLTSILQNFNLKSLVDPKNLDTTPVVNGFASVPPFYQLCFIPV
Chain of CYP3A4 (P450 3A4) (P08684 whole entry): as the sequence (P08684 whole entry) above

Turning to `O=C1CC(c2ccccc2)Oc2ccccc21` (centres unmarked) [flavanone], the “inhibition of P450 3A4 midazolam 4-hydroxylation, in words” value on human P450 3A4 [1] was “inhibited the formation of 4-hydroxymidazolam”. In addition, on human P450 3A4 [2], the “effect on formation of 1’-hydroxymidazolam by P450 3A4, in words” value is recorded as “enhanced the formation of 1’-hydroxymidazolam”.

`O=c1cc(-c2ccccc2)oc2cc(O)cc(O)c12` [57DHF, 5,7-dihydroxyflavone]: the “inhibition of P450 2C9 flurbiprofen 4’-hydroxylation, in words” value at human P450 2C9 [3] is given as “strong inhibitors”. The compound also yielded an IC50 against human P450 2C9 [4] of 800 ± 140 nM.

`O=c1cc(-c2ccc(O)cc2)oc2cc(O)cc(O)c12` [4’57THF, 4’5,7-trihydroxyflavone]: the “inhibition of P450 3A4 midazolam 4-hydroxylation, in words” value against human P450 3A4 [1] was “significantly inhibited”. Moreover, the “effect on formation of 1’-hydroxymidazolam by P450 3A4, in words” value at human P450 3A4 [5] is “slightly activated”.

For the compound `COc1cccc(-c2cc(=O)c3c(O)cc(O)cc3o2)c1` [3’M57DHF, 3’-methoxy-5,7-dihydroxyflavone], the values for the IC50 on human P450 1A1 and against CYP3A4 (P450 3A4) were 5800 nM and 16000 nM, respectively. On human P450 3A4 [6], the “spectral change / Type I binding spectra with P450 3A4, in words” value is reported as “induced spectral changes”. Besides, the “inhibition of P450 2C9 flurbiprofen 4’-hydroxylation, in words” value against human P450 2C9 [4] is “strong inhibitors”.

In the case of `COc1ccc(-c2cc(=O)c3c(O)cc(O)cc3o2)cc1OC` [3’4’DM57DHF, 3’4’-dimethoxy-5,7-dihydroxyflavone], the concentration for half-maximal inhibition (IC50) at human P450 1B1 stood at 19 ± 3 nM; against human P450 1A1, 72 ± 11 nM; at human P450 1A2 it was 11 ± 3 nM; on human P450 2C9 [3] it was 880 ± 210 nM. Moreover, the “inhibition of P450 2C9 flurbiprofen 4’-hydroxylation, in words” value on human P450 2C9 [3] is listed as “strong inhibitors”. Also, the “IC50 of P450 3A4 fold higher than that for P450 1B1” value on human P450 3A4 [7] (ratio IC50 3A4 / IC50 1B1) was found to be 2000 fold. For the same compound, the “IC50 of P450 3A4 fold higher than that of P450 2C9” value on human P450 3A4 [7] (ratio IC50 3A4 / IC50 2C9) is on record as 43 fold.

By IC50 is commonly meant the concentration that gives 50% inhibition.

Values taken from publication PMC3072440 (Chemical research in toxicology, 2010).
